# Measured values as given in BindingDB's records for doi:10.1021/jm00169a008 (Tsukuba Research Laboratories, 1990).
# Where a name gives a salt, the structure may show the parent alone.
# Target: T1, Acetylcholinesterase (Mus musculus, UniProt P21836)
# T1 sequence (P21836 whole entry): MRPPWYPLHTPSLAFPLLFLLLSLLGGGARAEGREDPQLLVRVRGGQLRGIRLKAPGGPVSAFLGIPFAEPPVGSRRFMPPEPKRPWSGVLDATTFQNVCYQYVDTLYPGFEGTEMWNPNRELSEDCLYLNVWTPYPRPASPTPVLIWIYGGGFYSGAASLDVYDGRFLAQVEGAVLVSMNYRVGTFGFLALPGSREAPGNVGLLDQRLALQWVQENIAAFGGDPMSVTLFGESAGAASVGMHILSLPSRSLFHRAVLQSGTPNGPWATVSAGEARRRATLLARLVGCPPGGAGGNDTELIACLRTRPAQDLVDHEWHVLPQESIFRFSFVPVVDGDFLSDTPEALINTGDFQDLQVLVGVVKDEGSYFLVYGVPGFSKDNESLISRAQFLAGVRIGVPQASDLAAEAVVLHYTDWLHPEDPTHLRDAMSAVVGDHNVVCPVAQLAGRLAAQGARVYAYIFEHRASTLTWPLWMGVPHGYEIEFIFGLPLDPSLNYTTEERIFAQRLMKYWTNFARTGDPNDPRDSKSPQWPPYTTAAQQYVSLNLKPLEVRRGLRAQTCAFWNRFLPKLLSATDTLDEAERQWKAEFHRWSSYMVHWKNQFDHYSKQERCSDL
# Assay: Enzyme Inhibition Assay
row,SMILES,IC50 [µM]
1,Cc1cccc(CN2CCC(CCN(C)C(=O)c3ccccc3)CC2)c1,0.145
2,CN(CCC1CCNCC1)C(=O)c1ccccc1 [(2E)-but-2-enedioic acid; N-methyl-N-[2-(piperidin-4-yl)ethyl]benzamide],26
3,CN(CCC1CCN(C(=O)c2ccccc2)CC1)C(=O)c1ccccc1 [N-[2-(1-benzoylpiperidin-4-yl)ethyl]-N-methylbenzamide],52
4,Cc1ccccc1CN1CCC(CCN(C)C(=O)c2ccccc2)CC1 [N-methyl-N-(2-{1-[(2-methylphenyl)methyl]piperidin-4-yl}ethyl)benzamide hydrochloride],0.77
5,CN(CCC1CCN(Cc2cccc([N+](=O)[O-])c2)CC1)C(=O)c1ccccc1 [N-methyl-N-(2-{1-[(3-nitrophenyl)methyl]piperidin-4-yl}ethyl)benzamide hydrochloride],0.37
6,CN(CCC1CCN(Cc2ccc([N+](=O)[O-])cc2)CC1)C(=O)c1ccccc1 [N-methyl-N-(2-{1-[(4-nitrophenyl)methyl]piperidin-4-yl}ethyl)benzamide hydrochloride],3.3
7,CN(CCC1CCN(CCc2ccccc2)CC1)C(=O)c1ccccc1 [N-methyl-N-{2-[1-(2-phenylethyl)piperidin-4-yl]ethyl}benzamide hydrochloride],13
